In test [1] the target is Neuraminidase (Influenza A virus (strain A/USSR/90/1977 H1N1), UniProt P03469, H274Y).
The subject of test [2] is Neuraminidase (Influenza A virus (strain A/USSR/90/1977 H1N1)), P03469 [H274Y]. Put plainly: Induction of drug resistance in influenza A virus H1N1 expressing neuraminidase H274Y mutant assessed as reduction in susceptibility relative to control. It counts as functional. Further details: scale not given: the % may be the effect or the level left.
The nature of test [3]: Induction of drug resistance in influenza A virus H3N1 expressing neuraminidase N294S mutant assessed as reduction in susceptibility relative to control. It is filed as functional. Further details: scale not given: the % may be the effect or the level left.
The nature of test [4]: Induction of drug resistance in influenza A virus H1N1 expressing neuraminidase I222R mutant assessed as reduction in susceptibility relative to control. It counts as functional. Further details: scale not given: the % may be the effect or the level left.
A short description of test [5]: Induction of drug resistance in influenza A virus H1N1 expressing neuraminidase S246N mutant assessed as reduction in susceptibility relative to control. It counts as functional. More on the design: scale not given: the % may be the effect or the level left.

This note sets out measurements from ChEMBL document CHEMBL5331047 (Eur J Med Chem, 2022).

On to `CC(=O)N[C@@H]1[C@@H](N)CC(C(=O)O)=C[C@H]1OC1CCSC1` (stereo not given in full), for which, in test [1], half-maximal inhibition (IC50) was put at 0.068 µM.
Take `CCOC(=O)C1=C[C@@H](OC(CC)CC)[C@H](NC(C)=O)[C@@H](N)C1` [OSELTAMIVIR]: the Activity in test [2], in test [3], in test [4] and in test [5] was under 3.5% each time.
